Data published in PMC8443647, “Hybrid derivative of cathelicidin and human beta defensin-2 against Gram-positive bacteria: A novel approach for the treatment of bacterial keratitis” (Scientific Reports, 2021).
Where two headings read alike, the source gives them in different places. Peptide text beside a SMILES is read from it.

What was measured:
S. aureus SH1000 = assay: microbe, parasite or virus in culture; format: cell-based, Staphylococcus aureus
From the text: (§1) A range of Gram-positive and Gram-negative laboratory- and clinical-strain bacteria were used for the experiments. These included laboratory-strain methicillin-sensitive S. aureus (MSSA; including SH1000 and ATCC SA29213), laboratory-strain MRSA (ATCC MRSA43300), clinical-strain MRSA (MRSA-OS; an IK isolate), laboratory-strain methicillin-sensitive Staphylococcus epidermidis (MSSE; ATCC SE12228), laboratory invasive-strain P. aeruginosa (PAO1-L), and clinical cytotoxic-strain P. aeruginosa (PA-OS; an IK isolate).
(§2) In vitro antimicrobial efficacy of the antibiotics and designed HDPs was determined using an established MIC assay with broth microdilution method approved by the Clinical and Laboratory Standards Institute (CLSI)[64]. Briefly, the microorganisms were cultured on Tryptone Soya Agar (TSA) and incubated overnight for 18–21 h at 37 °C. Bacterial inoculums were subsequently prepared using the direct colony suspension method. Three to five bacterial colonies were obtained from the agar plate and inoculated into an Eppendorf tube containing 1 ml of cation-adjusted Muller-Hinton broth (caMHB), consisting of 20–25 mg/L calcium ions (Ca^2+) and 10–12.5 mg/L magnesium ions (Mg^2+). The bacterial suspension was adjusted to achieve a turbidity equivalent to 0.1 OD600 or 0.5 MacFarland, containing ~ 1.5 × 10^8 colony-forming unit (CFU)/ml, which was then further diluted in 1:150 in caMHB to reach a final bacterial concentration of ~ 1 × 10^6 colony forming units (CFU)/ml. Each treatment (peptide or antibiotic) was prepared in 1:2 serial dilution in 96-well polypropylene microplates (with a final treatment volume of 50 μl per well), followed by the addition of 50 μl of 1 × 10^6 CFU/ml bacteria into each well (with a final bacterial concentration of 5 × 10^5 CFU/ml).

MRSA-OS = assay: microbe, parasite or virus in culture; format: cell-based, Staphylococcus aureus; settings: 24 h
From the text: as §1, §2

P. aeruginosa PAO1-L = assay: microbe, parasite or virus in culture; format: cell-based
From the text: as §1, §2

[1] = tested on: human corneal epithelial cells (HCE-2); assay: cells; format: cell-based; settings: 3 h
Procedure: Cell viability and cytotoxicity of antibiotics and peptides were determined against human corneal epithelial cells (HCE-2, CRL-11135, ATCC, Manassas, Virginia, USA) using cell-counting-kit-8 (CCK-8) assay (Sigma Aldrich, Merck Life Science UK Limited, Dorset, UK) and lactate dehydrogenase (LDH) assay (ThermoFisher Scientific, UK), respectively, as per manufacturer’s guidelines. HCE-2 cells were cultured and seeded into a 96-well plate at a density of 7.5 × 10^3 cells/well and allowed to attach overnight and grew to 80–90% confluency in keratinocyte serum free medium (KSFM) supplemented with human recombinant epidermal growth factor, bovine pituitary extract, hydrocortisone, and insulin. Once the confluency reached 80–90%, the cells were incubated with treatment for 3 h before OD450 measurement was taken using BMG Clariostar microplate reader (BMG Labtech Ltd., Aylesbury, UK). Appropriate controls were used, including 0.1% Triton X-100 as positive control and KSFM as negative control. Cell viability was calculated using the following formula: [([…]) × 100; I = intensity] and cytotoxicity was calculated using the following formula: [((Itreatment – INC)/(IPC – INC)) × 100].

P. aeruginosa PA-OS = assay: microbe, parasite or virus in culture; format: cell-based; settings: 24 h
From the text: as §1, §2

[2] = 0 mM NaCl, caMHB, 24 h, read-out: MIC
[3] = 0 mM NaCl, caMHB, read-out: MIC

MIC (S. aureus SH1000; [2]) [µM]	MIC (S. aureus SH1000; SH1000, 24 h) [µg/mL]	MIC (MRSA-OS; [3]) [µM]	MIC (MRSA-OS; -OS) [µg/mL]	MIC (P. aeruginosa PAO1-L; [2]) [µM]	MIC (P. aeruginosa PAO1-L; PAO1, 24 h) [µg/mL]	MIC (P. aeruginosa PA-OS; PA-OS) [µg/mL]	MIC (S. aureus SH1000; 150 mM NaCl, caMHB, 24 h, read-out: MIC) [µM]	MIC (P. aeruginosa PA-OS; [3]) [µM]	SMILES	IC50 (concentration causing 50% inhibition of cell viability) [1] [µg/mL]	Imax (%): percentage of inhibition of cell viability at 200 µg/ml ([1]; HCE-2, CCK-8 assay, 200 µg/ml, mean (SD))
> 115	> 200	> 115	> 200	> 115	> 200				C[C@H](NC(=O)[C@H](CCCCN)NC(=O)CNC(=O)[C@@H](N)CCCNC(=N)N)C(=O)N[C@@H](CCCCN)C(=O)N[C@@H](CS)C(=O)N[C@@H](CS)C(=O)N[C@@H](CCCCN)C(=O)NCC(=O)N[C@H](C(=O)N[C@@H](CCCCN)C(=O)N[C@@H](CS)C(=O)N[C@@H](CS)C(=O)N[C@@H](CCCCN)C(=O)N[C@@H](CCCCN)C(=O)N1CCC[C@H]1C(=O)O)[C@@H](C)O [DD12, RGKAKCCKGT KCCKKP] (H-RGKAKCCKGTKCCKKP-OH; N-terminus and C-terminus assumed)		
> 92.3	> 200	> 92.3	> 200	> 92.3	> 200				C[C@H](NC(=O)[C@H](CCCCN)NC(=O)CNC(=O)[C@@H](N)CCCNC(=N)N)C(=O)N[C@@H](CCCCN)C(=O)N[C@@H](CS)C(=O)N[C@@H](CS)C(=O)N[C@@H](CCCCN)C(=O)N[C@@H](CCCNC(=N)N)C(=O)NCC(=O)N[C@@H](CCCNC(=N)N)C(=O)N[C@@H](CCCCN)C(=O)N[C@@H](CS)C(=O)N[C@@H](CS)C(=O)N[C@@H](CCCNC(=N)N)C(=O)N[C@@H](CCCNC(=N)N)C(=O)N[C@@H](CCCCN)C(=O)N[C@@H](CCCCN)C(=O)O [DD13, RGKAKCCKRG RKCCRRKK] (H-RGKAKCCKRGRKCCRRKK-OH; N-terminus and C-terminus assumed)		

The next lines start with the compound.

SMILES	MIC (S. aureus SH1000; [2]) [µM]	MIC (S. aureus SH1000; SH1000, 24 h) [µg/mL]	MIC (MRSA-OS; [3]) [µM]	MIC (MRSA-OS; -OS) [µg/mL]	MIC (P. aeruginosa PAO1-L; [2]) [µM]	MIC (P. aeruginosa PAO1-L; PAO1, 24 h) [µg/mL]	MIC (P. aeruginosa PA-OS; PA-OS) [µg/mL]	MIC (S. aureus SH1000; 150 mM NaCl, caMHB, 24 h, read-out: MIC) [µM]	MIC (P. aeruginosa PA-OS; [3]) [µM]	IC50 (concentration causing 50% inhibition of cell viability) [1] [µg/mL]	Imax (%): percentage of inhibition of cell viability at 200 µg/ml ([1]; HCE-2, CCK-8 assay, 200 µg/ml, mean (SD))
CC[C@H](C)[C@H](NC(=O)[C@@H](N)CCCNC(=N)N)C(=O)N[C@@H](CCCCN)C(=O)N[C@@H](CC(=O)O)C(=O)N[C@@H](Cc1ccccc1)C(=O)N[C@@H](CC(C)C)C(=O)N[C@@H](CCCNC(=N)N)C(=O)N[C@@H](CC(N)=O)C(=O)NCC(=O)N[C@@H](CCCNC(=N)N)C(=O)N[C@@H](CCCCN)C(=O)N[C@@H](CS)C(=O)N[C@@H](CS)C(=O)N[C@@H](CCCNC(=N)N)C(=O)N[C@@H](CCCNC(=N)N)C(=O)N[C@@H](CCCCN)C(=O)N[C@@H](CCCCN)C(=O)O [CaD3, RIKDFLRNGR KCCRRKK] (H-RIKDFLRNGRKCCRRKK-OH; N-terminus and C-terminus assumed)	> 91.8	> 200	> 91.8	> 200	> 91.8	> 200					
CC[C@H](C)[C@H](NC(=O)[C@H](CCCNC(=N)N)NC(=O)[C@H](CCC(N)=O)NC(=O)[C@@H](NC(=O)[C@@H](NC(=O)[C@H](CCCNC(=N)N)NC(=O)[C@@H](N)CCCCN)[C@@H](C)CC)C(C)C)C(=O)N[C@@H](CCCCN)C(=O)N[C@@H](CC(=O)O)C(=O)N[C@@H](Cc1ccccc1)C(=O)N[C@@H](CC(C)C)C(=O)N[C@@H](CCCNC(=N)N)C(=O)N[C@@H](CCCNC(=N)N)C(=O)NCC(=O)N[C@@H](CCCCN)C(=O)N[C@@H](C)C(=O)N[C@@H](CCCCN)C(=O)O [CaD1, KRIVQRIKDF LRRGKAK] (H-KRIVQRIKDFLRRGKAK-OH; N-terminus and C-terminus assumed)		> 200		> 200		> 200					
NCCCC[C@H](NC(=O)[C@H](CS)NC(=O)[C@H](CS)NC(=O)[C@@H](N)CCCCN)C(=O)N[C@@H](CCCCN)C(=O)N1CCC[C@H]1C(=O)O [BD2-6, KCCKKP] (H-KCCKKP-OH; N-terminus and C-terminus assumed)	> 283.3	> 200	> 283.3	> 200	> 283.3	> 200					
CC[C@H](C)[C@H](NC(=O)[C@H](CCCNC(=N)N)NC(=O)[C@H](CCC(N)=O)NC(=O)[C@@H](NC(=O)[C@@H](NC(=O)[C@H](CCCNC(=N)N)NC(=O)[C@@H](N)CCCCN)[C@@H](C)CC)C(C)C)C(=O)N[C@@H](CCCCN)C(=O)N[C@@H](CC(=O)O)C(=O)N[C@@H](Cc1ccccc1)C(=O)N[C@@H](CC(C)C)C(=O)N[C@@H](CCCNC(=N)N)C(=O)N[C@@H](CCCCN)C(=O)N[C@@H](C)C(=O)N[C@@H](CS)C(=O)N[C@@H](CCCCN)C(=O)N[C@@H](CCCCN)C(=O)N1CCC[C@H]1C(=O)O [CaD21, KRIVQRIKDF LRKACKKP] (H-KRIVQRIKDFLRKACKKP-OH; N-terminus and C-terminus assumed)		200		> 200			200			> 200	
N=C(N)NCCC[C@H](NC(=O)CNC(=O)[C@@H](N)CCCNC(=N)N)C(=O)N[C@@H](CCCCN)C(=O)N[C@@H](CS)C(=O)N[C@@H](CS)C(=O)N[C@@H](CCCNC(=N)N)C(=O)N[C@@H](CCCNC(=N)N)C(=O)N[C@@H](CCCCN)C(=O)N[C@@H](CCCCN)C(=O)O [BD3-10, RGRKCCRRKK] (H-RGRKCCRRKK-OH; N-terminus and C-terminus assumed)	> 154.9	> 200	> 154.9	> 200	> 154.9	> 200					
CC[C@H](C)[C@H](NC(=O)[C@H](CCCNC(=N)N)NC(=O)[C@H](CCC(N)=O)NC(=O)[C@@H](NC(=O)[C@@H](NC(=O)[C@H](CCCNC(=N)N)NC(=O)[C@@H](N)CCCCN)[C@@H](C)CC)C(C)C)C(=O)N[C@@H](CCCCN)C(=O)N[C@@H](CC(=O)O)C(=O)N[C@@H](Cc1ccccc1)C(=O)N[C@@H](CC(C)C)C(=O)N[C@@H](CCCNC(=N)N)C(=O)O [Ca12, KRIVQRIKDF LR] (H-KRIVQRIKDFLR-OH; N-terminus and C-terminus assumed)		> 200		> 200		200					
N=C(N)NCCC[C@H](NC(=O)CNC(=O)[C@@H](N)CCCNC(=N)N)C(=O)N[C@@H](CCCCN)C(=O)N[C@@H](CS)C(=O)N[C@@H](CS)C(=O)N[C@@H](CCCNC(=N)N)C(=O)N[C@@H](CCCNC(=N)N)C(=O)N[C@@H](CCCCN)C(=O)N[C@@H](CCCCN)C(=O)N[C@@H](CCCCN)C(=O)N[C@@H](CS)C(=O)N[C@@H](CS)C(=O)N[C@@H](CCCCN)C(=O)N[C@@H](CCCCN)C(=O)N1CCC[C@H]1C(=O)O [DD32, RGRKCCRRKK KCCKKP] (H-RGRKCCRRKKKCCKKP-OH; N-terminus and C-terminus assumed)	> 101	> 200	> 101		> 101	> 200					
CC[C@H](C)[C@H](NC(=O)[C@H](CCCNC(=N)N)NC(=O)[C@H](CCC(N)=O)NC(=O)[C@@H](NC(=O)[C@@H](NC(=O)[C@H](CCCNC(=N)N)NC(=O)[C@@H](N)CCCCN)[C@@H](C)CC)C(C)C)C(=O)N[C@@H](CCCCN)C(=O)N[C@@H](CC(=O)O)C(=O)N[C@@H](Cc1c[nH]c2ccccc12)C(=O)N[C@@H](CC(C)C)C(=O)N[C@@H](CCCNC(=N)N)C(=O)N[C@@H](CCCCN)C(=O)N[C@@H](CS)C(=O)N[C@@H](CS)C(=O)N[C@@H](CCCCN)C(=O)N[C@@H](CCCCN)C(=O)N1CCC[C@H]1C(=O)O [CaD22, KRIVQRIKDW LRKCCKKP] (H-KRIVQRIKDWLRKCCKKP-OH; N-terminus and C-terminus assumed)	43.5		> 87.0	> 200	87.0	200	200	> 87.0	87.0	> 200	34.3 (8.2) %
